Laboratory results: PubChem BioAssay (NCI)
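How tested: cells in 96-well plates exposed to compound for 48 hours at five concentrations. TGI is the concentration that stops growth completely.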

Experiments:
Experiment in all cases: growth of human tumour cells (NCI), 48 h
[1] = tested on: HCT-15 colon
[2] = tested on: EKVX NSCLC
[3] = tested on: SK-MEL-28 melanoma
[4] = tested on: SK-MEL-5 melanoma
[5] = tested on: LOX IMVI melanoma
[6] = tested on: NCI-H460 lung
[7] = tested on: MALME-3M melanoma
[8] = tested on: ACHN renal
[9] = tested on: NCI/ADR-RES ovarian
[10] = tested on: PC-3 prostate
[11] = tested on: T-47D breast
[12] = tested on: UO-31 renal
[13] = tested on: BT-549 breast
[14] = tested on: TK-10 renal
[15] = tested on: U251 CNS
[16] = tested on: A498 renal
[17] = tested on: HL-60(TB) leukemia
[18] = tested on: SNB-19 CNS
[19] = tested on: HT29 colon
[20] = tested on: SF-295 CNS
[21] = tested on: HOP-92 NSCLC
[22] = tested on: K-562 leukemia
[23] = tested on: SK-OV-3 ovarian
[24] = tested on: IGROV1 ovarian
[25] = tested on: SF-539 CNS
[26] = tested on: MOLT-4 leukemia
[27] = tested on: UACC-62 melanoma
[28] = tested on: MDA-N
[29] = tested on: A549 NSCLC
[30] = tested on: M14 melanoma
[31] = tested on: MCF7 breast
[32] = tested on: MDA-MB-231 breast
[33] = tested on: DU-145 prostate
[34] = tested on: CAKI-1 renal
[35] = tested on: OVCAR-8 ovarian
[36] = tested on: SW-620 colon
[37] = tested on: KM12 colon
[38] = tested on: NCI-H23 lung
[39] = tested on: HS 578T breast
[40] = tested on: OVCAR-3 ovarian
[41] = tested on: COLO 205 colon
[42] = tested on: HCC-2998 colon
[43] = tested on: SN12C renal
[44] = tested on: SK-MEL-2 melanoma
[45] = tested on: SNB-75 CNS
[46] = tested on: NCI-H226 lung
[47] = tested on: 786-0 renal
[48] = tested on: HOP-62 NSCLC
[49] = tested on: OVCAR-5 ovarian
[50] = tested on: CCRF-CEM leukemia
[51] = tested on: NCI-H522 lung
[52] = tested on: SF-268 CNS
[53] = tested on: MDA-MB-435
[54] = tested on: HCT-116 colon
[55] = tested on: OVCAR-4 ovarian
[56] = tested on: UACC-257 melanoma
[57] = tested on: SR leukemia
[58] = tested on: RPMI-8226 leukemia

## C=C[C@H]1CN2CCc3c([nH]c4cc(O)ccc34)[C@@H]2C[C@@H]1C[C@H]1c2[nH]c3ccccc3c2CCN1C
[1]
  TGI: 6.54 µM
[2]
  TGI: 20.1 µM
[3]
  TGI: 3.27 µM
[4]
  TGI: 3.14 µM
[5]
  TGI: 9.67 µM
[6]
  TGI: 4.96 µM
[7]
  TGI: 26.9 µM
[8]
  TGI: 10.1 µM
[9]
  TGI: 24.6 µM
[10]
  TGI: 9.69 µM
[11]
  TGI: 36.1 µM
[12]
  TGI: 4.81 µM
[13]
  TGI: 27.2 µM
[14]
  TGI: 22.1 µM
[15]
  TGI: 3.24 µM
[16]
  TGI: 5.83 µM
[17]
  TGI: 7.69 µM
[18]
  TGI: 17.6 µM
[19]
  TGI: 6.4 µM
[20]
  TGI: 9.15 µM
[21]
  TGI: 8.08 µM
[22]
  TGI: 7.88 µM
[23]
  TGI: 27.4 µM
[24]
  TGI: 3.39 µM
[25]
  TGI: 3.33 µM
[26]
  TGI: 12.4 µM
[27]
  TGI: 8.46 µM
[28]
  TGI: 3.22 µM
[29]
  TGI: 15 µM
[30]
  TGI: 3.14 µM
[31]
  TGI: 6.01 µM
[32]
  TGI: 16.9 µM
[33]
  TGI: 33.9 µM
[34]
  TGI: 14.6 µM
[35]
  TGI: 11.8 µM
[36]
  TGI: 3.87 µM
[37]
  TGI: 9.13 µM
[38]
  TGI: 31.8 µM
[39]
  TGI: 11.1 µM
[40]
  TGI: 9.55 µM
[41]
  TGI: 3.31 µM
[42]
  TGI: 3.44 µM
[43]
  TGI: 13.3 µM
[44]
  TGI: 7.65 µM
[45]
  TGI: 6.62 µM
[46]
  TGI: 36.3 µM
[47]
  TGI: 3.36 µM
[48]
  TGI: 9.37 µM
[49]
  TGI: 31.4 µM
[50]
  TGI: 3.98 µM
[51]
  TGI: 8.29 µM
[52]
  TGI: 15.8 µM
[53]
  TGI: 3.76 µM
[54]
  TGI: 5.94 µM
[55]
  TGI: 18.7 µM
[56]
  TGI: 3.98 µM
[57]
  TGI: 6.41 µM

## CCN1CC2(COC)C(O)CC(OC)C34C5CC6(O)C(OC)C=C(C5C6OC(=O)c5ccc(OC)c(OC)c5)C(C(OC)C23)C14 (stereo not drawn)
[1]
  TGI: > 7.5 µM
[2]
  TGI: > 7.5 µM
[3]
  TGI: > 7.5 µM
[4]
  TGI: > 7.5 µM
[5]
  TGI: > 7.5 µM
[6]
  TGI: > 7.5 µM
[7]
  TGI: > 7.5 µM
[8]
  TGI: > 7.5 µM
[9]
  TGI: > 7.5 µM
[10]
  TGI: > 7.5 µM
[11]
  TGI: > 7.5 µM
[12]
  TGI: > 7.5 µM
[13]
  TGI: > 7.5 µM
[14]
  TGI: > 7.5 µM
[15]
  TGI: > 7.5 µM
[16]
  TGI: > 7.5 µM
[17]
  TGI: > 7.5 µM
[18]
  TGI: > 7.5 µM
[19]
  TGI: > 7.5 µM
[20]
  TGI: > 7.5 µM
[21]
  TGI: > 7.5 µM
[22]
  TGI: > 7.5 µM
[23]
  TGI: > 7.5 µM
[24]
  TGI: > 7.5 µM
[25]
  TGI: > 7.5 µM
[27]
  TGI: > 7.5 µM
[28]
  TGI: > 7.5 µM
[29]
  TGI: > 7.5 µM
[30]
  TGI: > 7.5 µM
[31]
  TGI: > 7.5 µM
[32]
  TGI: > 7.5 µM
[33]
  TGI: > 7.5 µM
[34]
  TGI: > 7.5 µM
[35]
  TGI: > 7.5 µM
[36]
  TGI: > 7.5 µM
[37]
  TGI: > 7.5 µM
[38]
  TGI: > 7.5 µM
[39]
  TGI: > 7.5 µM
[41]
  TGI: > 7.5 µM
[42]
  TGI: > 7.5 µM
[43]
  TGI: > 7.5 µM
[44]
  TGI: > 7.5 µM
[45]
  TGI: > 7.5 µM
[46]
  TGI: > 7.5 µM
[47]
  TGI: > 7.5 µM
[49]
  TGI: > 7.5 µM
[50]
  TGI: > 7.5 µM
[51]
  TGI: > 7.5 µM
[52]
  TGI: > 7.5 µM
[53]
  TGI: > 7.5 µM
[54]
  TGI: > 7.5 µM
[55]
  TGI: > 7.5 µM
[56]
  TGI: > 7.5 µM
[57]
  TGI: > 7.5 µM

## O=C(c1c(Cl)cc(Cl)cc1Cl)N(Cc1cccnc1)C(=S)N(Cc1cccnc1)C(=O)c1c(Cl)cc(Cl)cc1Cl
[1]
  TGI: 11.2 µM
[2]
  TGI: 35.3 µM
[58]
  TGI: > 100 µM
[3]
  TGI: 47.9 µM
[4]
  TGI: 26.4 µM
[5]
  TGI: 15.1 µM
[6]
  TGI: 32.9 µM
[7]
  TGI: 42.4 µM
[8]
  TGI: 41.1 µM
[9]
  TGI: 34.3 µM
[10]
  TGI: 24 µM
[11]
  TGI: 41.4 µM
[12]
  TGI: 19.4 µM
[13]
  TGI: 9.59 µM
[14]
  TGI: 11.1 µM
[15]
  TGI: 27.3 µM
[16]
  TGI: 51.6 µM
[17]
  TGI: 64.7 µM
[18]
  TGI: 52.4 µM
[19]
  TGI: 13.2 µM
[20]
  TGI: 43.2 µM
[21]
  TGI: 10.6 µM
[22]
  TGI: > 100 µM
[23]
  TGI: 77 µM
[25]
  TGI: 28.4 µM
[26]
  TGI: > 100 µM
[27]
  TGI: 34.2 µM
[28]
  TGI: 5.2 µM
[29]
  TGI: > 100 µM
[30]
  TGI: 26.5 µM
[31]
  TGI: 15.8 µM
[32]
  TGI: 40.9 µM
[33]
  TGI: 17.2 µM
[34]
  TGI: 19.8 µM
[35]
  TGI: 16.5 µM
[36]
  TGI: > 100 µM
[37]
  TGI: 10.3 µM
[38]
  TGI: 23.5 µM
[39]
  TGI: 58.4 µM
[40]
  TGI: 13.9 µM
[41]
  TGI: 21.9 µM
[42]
  TGI: 7.4 µM
[43]
  TGI: 20.5 µM
[44]
  TGI: 36 µM
[45]
  TGI: 14.2 µM
[46]
  TGI: 45.1 µM
[47]
  TGI: 10.5 µM
[48]
  TGI: 20.3 µM
[49]
  TGI: 40.8 µM
[50]
  TGI: > 100 µM
[51]
  TGI: 25.6 µM
[52]
  TGI: 27.8 µM
[53]
  TGI: 26.5 µM
[54]
  TGI: 11.1 µM
[55]
  TGI: 5.25 µM
[56]
  TGI: 22.8 µM
[57]
  TGI: > 100 µM
